Assays:
Nucleic Acid [1] = assay: Binding affinity to polyG-polyC double stranded RNA by thermal denaturation assay; format: nucleic-acid assay
DNA = assay: Binding affinity to calf thymus DNA by thermal denaturation assay; format: nucleic-acid assay; settings: Bos taurus
Nucleic Acid [2] = assay: Binding affinity to polyA-polyU double stranded RNA by thermal denaturation assay; format: nucleic-acid assay
[3] = Binding affinity to polydA-polydT DNA by thermal denaturation assay

For `N=C(N)NC(=O)c1ccc(C(=O)NCCCCNC(=O)c2ccc3ccc4cccc5ccc2c3c45)[nH]1`, the log K (Nucleic Acid [1]) was 5.1, the log K (DNA) was 5.1 and the ΔTm (DNA) was 7.3 °C. For the same molecule, the log K (Nucleic Acid [2]) was 5.1, the ΔTm (Nucleic Acid [2]) was -1.5 °C and the log K [3] was 5.1.
